Experimental data reported in the supplement of paper PMC6045584.
± gives the standard deviation of the averaged measurements.

Assays:
[1] = compound: CCCCCCCCCCCCCCCC(=O)Nc1ccn([C@@H]2O[C@H](CO)[C@@H](O)[C@@H]2C#N)c(=O)n1 [SAPACITABINE]; assay: area under dose-response curve of surviving fraction (unscaled, Aref=0) (surviving fraction x log10(nM)); higher = more resistant; settings: exposure time: 5 days; dose range 0.5-1000 nM
In short: (§1)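 Surviving fractions were fitted by 3-parameter logistic regression in the drc R package to give dose-response survival curves. They came from tumour cell lines treated for five days with eight inhibitor concentrations from 0.5 to 1000 nM and read by CellTiter-Glo luminescence against DMSO-only wells. The area under the curve is the unscaled activity area. It was calculated over log10 dose with Aref = 0.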

[2] = compound: Cn1cc(C2=Nc3cc(NC(=O)C(N)C4CCCCC4)cc4c3C2=CNNC4=O)cn1; assay: as above; settings: exposure time: 5 days; dose range 0.5-1000 nM
In short: as §1

[3] = compound: T1, CN(C)C/C=C/C(=O)Nc1cc2c(Nc3ccc(F)c(Cl)c3)ncnc2cc1O[C@H]1CCOC1 [AFATINIB]; assay: as above; settings: exposure time: 5 days; dose range 0.5-1000 nM
In short: as §1

[4] = compound: CC1(C)CC(=O)c2c(C(F)(F)F)nn(-c3ccc(C(N)=O)c(N[C@H]4CC[C@H](OC(=O)CN)CC4)c3)c2C1 [SNX-5422]; assay: as above; settings: exposure time: 5 days; dose range 0.5-1000 nM
In short: as §1

[5] = compound: Cn1cc(C2=Nc3cc(NC(=O)C(N)C4CCCCC4)cc4c3C2=CNNC4=O)cn1; assay: surviving fraction relative to DMSO-only wells; higher = less growth inhibition; settings: exposure time: 5 days
In short: (§2)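 Lines were retained only if, across three screens, replicate Pearson r was >0.7 and median Z' was >0.3. Viability was measured as CellTiter-Glo luminescence and reported as surviving fraction relative to the median of DMSO-only wells. Readings followed 10 minutes at room temperature, after log-phase tumour cells seeded at 250–500 per well in 384-well plates had been exposed, from 24 hours after seeding, continuously for five days to inhibitors at 0.5, 1, 5, 10, 50, 100, 500 and 1000 nM.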

[6] = compound: T1, AFATINIB; assay: as above; settings: exposure time: 5 days
In short: as §2

Test System | area under dose-response curve [1] | area under dose-response curve [2] | area under dose-response curve [3] | area under dose-response curve [4] | surviving fraction ([5]; 0.5 nM) | surviving fraction ([5]; 1 nM) | surviving fraction ([5]; 5 nM) | surviving fraction ([5]; 10 nM) | surviving fraction ([5]; 50 nM) | surviving fraction ([5]; 100 nM) | surviving fraction ([5]; 500 nM) | surviving fraction ([5]; 1000 nM) | surviving fraction ([6]; 0.5 nM) | surviving fraction ([6]; 1 nM) | surviving fraction ([6]; 5 nM) | surviving fraction ([6]; 10 nM) | surviving fraction ([6]; 50 nM) | surviving fraction ([6]; 100 nM) | surviving fraction ([6]; 500 nM) | surviving fraction ([6]; 1000 nM)
SJSA1 BONE | 4.77 | 3.02 | 3.26 | 2.07 | 1.023 ± 0.0096 | 0.984 ± 0.02 | 1.01 ± 0.061 | 1.06 ± 0.036 | 1.03 ± 0.021 | 1.006 ± 0.0057 | 0.526 ± 0.044 | 0.337 ± 0.018 | 1.05 ± 0.014 | 0.9563 ± 0.0055 | 1.11 ± 0.017 | 1.04 ± 0.05 | 1.15 ± 0.063 | 1.07 ± 0.023 | 0.995 ± 0.041 | 0.613 ± 0.033
SYO1 SYNOVIAL | 1.23 | 1.84 | 2.96 | 1.47 | 0.977 ± 0.022 | 0.96 ± 0.026 | 0.924 ± 0.04 | 0.897 ± 0.036 | 0.441 ± 0.02 | 0.18 ± 0.051 | 0.0432 ± 0.008 | 0.042 ± 0.0055 | 0.996 ± 0.057 | 1.03 ± 0.027 | 0.948 ± 0.059 | 0.995 ± 0.026 | 0.95 ± 0.017 | 0.952 ± 0.042 | 0.606 ± 0.035 | 0.324 ± 0.02
VCAP PROSTATE | 3.11 | 2.82 | 3.11 | 2.12 | 1.04 ± 0.058 | 1.13 ± 0.12 | 1.14 ± 0.033 | 1.16 ± 0.081 | 0.969 ± 0.051 | 0.97 ± 0.032 | 0.254 ± 0.059 | 0.113 ± 0.0095 | 1.07 ± 0.14 | 1 ± 0.16 | 1.06 ± 0.093 | 1.06 ± 0.051 | 1.06 ± 0.064 | 1.03 ± 0.14 | 0.723 ± 0.14 | 0.405 ± 0.043
MDAMB453 BREAST | 3.1 | 2.33 | 2.7 | 2.06 | 0.971 ± 0.011 | 1.01 ± 0.034 | 0.999 ± 0.026 | 1.01 ± 0.04 | 0.784 ± 0.044 | 0.293 ± 0.013 | 0.179 ± 0.019 | 0.206 ± 0.011 | 1.08 ± 0.061 | 1 ± 0.045 | 1.05 ± 0.064 | 1.05 ± 0.029 | 0.777 ± 0.076 | 0.668 ± 0.091 | 0.576 ± 0.027 | 0.41 ± 0.026
KPD BONE | 2.81 | 2.3 | 3.02 | 1.89 | 0.953 ± 0.041 | 0.891 ± 0.018 | 1.19 ± 0.24 | 0.977 ± 0.026 | 0.84 ± 0.028 | 0.389 ± 0.021 | 0.0873 ± 0.0023 | 0.0763 ± 0.008 | 0.964 ± 0.051 | 0.978 ± 0.045 | 1.04 ± 0.066 | 0.976 ± 0.051 | 1.08 ± 0.06 | 0.888 ± 0.034 | 0.65 ± 0.056 | 0.354 ± 0.014
NOS1 BONE | 2.87 | 2.73 | 2.86 | 2.09 | 1 ± 0.16 | 0.948 ± 0.081 | 1.11 ± 0.1 | 1.05 ± 0.1 | 0.813 ± 0.075 | 0.872 ± 0.064 | 0.339 ± 0.009 | 0.195 ± 0.013 | 0.993 ± 0.2 | 0.997 ± 0.014 | 1.05 ± 0.066 | 0.947 ± 0.04 | 1.13 ± 0.11 | 0.983 ± 0.1 | 0.238 ± 0.019 | 0.096 ± 0.0027
MHM BONE | 2.69 | 2.98 | 3.27 | 2.48 | 0.998 ± 0.018 | 1.01 ± 0.032 | 1.051 ± 0.01 | 1.031 ± 0.002 | 1.12 ± 0.021 | 1.15 ± 0.034 | 0.394 ± 0.034 | 0.183 ± 0.02 | 1.022 ± 0.0067 | 1 ± 0.018 | 1.02 ± 0.016 | 1 ± 0.03 | 1.07 ± 0.028 | 1.03 ± 0.016 | 0.961 ± 0.041 | 0.883 ± 0.022
